Measured values published in patent US11951202B2, “Compounds and compositions for use” (DR WELLER LIMITED, priority 2016, dated 2024).

Test system: full thickness human skin homogenate
Experiment: In vitro NO generation by NO specific Clarke-type electrode, UVA-irradiated skin homogenate
Format: biochemical
Conditions: UVA radiation, nitrite source
Source text: Electrochemical sensors are widely used for the measurement of NO generation and Clark-type electrodes are most widely used as they are commercially available and easy to handle. The principle of these sensors is that NO diffuses through a gas-permeable membrane and a thin film of electrolyte, followed by oxidation on the working electrode. This oxidation creates a current that is proportional to the concentration of NO outside the membrane. The advantage of electrochemical NO sensors is the ability to directly detect NO concentration in solution or in biological samples with a low nanomolar detection limit. This makes NO electrodes an excellent tool for studying NO generation especially in biological samples.
We used the Clarke electrode technique to investigate the mechanism of UVA light dependent NO generation in skin and cosmetically acceptable components which could facilitate augment the endogenous process.
A 10% (g/mL) full thickness human skin homogenate in phosphate buffer was prepared using a glass/glass homogenizer. The homogenate was preheated at 56° C. for 1 hour to inactivate enzymatic generation of NO.
200 ul of homogenate was placed in a quartz cuvette in a thermostatically controlled environment and irradiated with broadband (320-400 nm) UVA radiation. Baseline signals were recorded. […]

| SMILES | sustained UV induced NO generation from nitrite |
| --- | --- |
| O=C(O)CCCCC1CCSS1 (centres unmarked) [Lipoic acid (Oxidised), Lipoic acid] | able to participate in sustained NO generation |
| N[C@@H](CSSC[C@H](N)C(=O)O)C(=O)O [Cystine] | able to participate in sustained NO generation |
